Data from patent US20230091225A1, “Bifunctional chimeric heterocyclic compounds for targeted degradation of androgen receptors and use thereof” (HINOVA PHARMACEUTICALS INC., priority 2019, published 2023).
pIC50: −log10 of the molar value. Like-named read-outs stand apart in the source and are kept apart here.

Experiments:
[1] = test system: LNCaP/AR cells; experiment: Inhibition of proliferation of LNCaP/AR prostate cancer cells (CCK-8); assay type: cell-based
[2] = target: T1, androgen receptor (AR) (Homo sapiens, UniProt P10275); experiment: Degradation of androgen receptor (AR) protein in VCaP cells by ELISA; assay type: cell-based; details: for inhibition at 0.1 µM: 16 h, read-out: % degradation
T1 sequence (P10275 1-920): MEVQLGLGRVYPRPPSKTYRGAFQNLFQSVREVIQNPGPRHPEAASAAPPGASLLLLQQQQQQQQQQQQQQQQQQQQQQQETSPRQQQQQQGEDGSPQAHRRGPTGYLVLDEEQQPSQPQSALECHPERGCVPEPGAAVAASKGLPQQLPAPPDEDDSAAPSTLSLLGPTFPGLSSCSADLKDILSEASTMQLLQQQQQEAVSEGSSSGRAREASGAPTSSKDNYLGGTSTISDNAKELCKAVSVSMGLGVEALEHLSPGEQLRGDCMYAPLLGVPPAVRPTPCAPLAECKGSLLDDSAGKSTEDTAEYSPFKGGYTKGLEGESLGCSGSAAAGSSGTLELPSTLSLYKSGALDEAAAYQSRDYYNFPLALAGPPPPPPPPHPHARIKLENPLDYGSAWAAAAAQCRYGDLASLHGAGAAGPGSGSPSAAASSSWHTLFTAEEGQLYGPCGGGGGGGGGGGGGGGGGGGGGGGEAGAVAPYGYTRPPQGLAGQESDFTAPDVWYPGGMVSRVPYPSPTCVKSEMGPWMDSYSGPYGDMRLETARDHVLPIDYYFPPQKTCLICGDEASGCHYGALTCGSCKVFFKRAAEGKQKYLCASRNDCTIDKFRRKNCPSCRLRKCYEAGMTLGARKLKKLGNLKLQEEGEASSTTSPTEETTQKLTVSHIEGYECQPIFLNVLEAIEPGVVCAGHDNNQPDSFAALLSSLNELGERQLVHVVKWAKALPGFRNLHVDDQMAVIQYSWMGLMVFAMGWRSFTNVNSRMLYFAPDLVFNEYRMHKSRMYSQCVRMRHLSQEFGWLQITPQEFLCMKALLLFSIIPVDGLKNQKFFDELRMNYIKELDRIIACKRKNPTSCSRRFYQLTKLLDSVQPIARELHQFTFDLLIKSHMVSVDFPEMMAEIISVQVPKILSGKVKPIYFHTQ

[3] = 144 h, proliferation of LNCap/AR cells, 6 days, CCK-8, read-out: IC50
[4] = percentage of degraded AR at 100 nM, VCaP cells, ELISA

SMILES	pIC50 [1, 3]	inhibition at 0.1 µM [2, 4] [%]	further results
Cc1ncsc1-c1ccc([C@H](C)NC(=O)[C@@H]2C[C@@H](O)CN2C(=O)[C@@H](NC(=O)CN2CCC(CN3CCN(c4ccc(C(=O)NC5CC6(C)OC5(C)[C@@H]5C(=O)N(c7ccc(C#N)c(Cl)c7)C(=O)[C@@H]56)cn4)CC3)CC2)C(C)(C)C)cc1 (stereo partly drawn) [Compound 18, N-((3aR,4R,7R,7aS)-2-(3-chloro-4-benzonitrile)-4,7-dimethyl-1,3dioxooctahydro-1H-4,7-epoxyisoindolin-5-yl)-6-(4-((1-(2-(((S)-1-((2S,4R)-4-hydroxy-2-(((S)-1-(4-(4-methylthiazol-5-yl)phenyl)ethyl)carbamoyl)pyrrolidin-1-yl)-3,3-dimethyl-1-oxobutan-2-yl)amino)-2-oxoethyl)piperidine-4-yl)methyl)piperazin-1-yl)nicotinamide]	–	–	pIC50 ([1]; LNCaP/AR, 144 h): > 7.00; inhibition at 0.1 µM ([2]; VCaP): > 80%
CC(=O)O[C@@H]1C[C@H](C(=O)N[C@H](C)c2ccc(-c3scnc3C)cc2)N(C(=O)[C@H](NC(=O)COCCCCCNc2ccc(C(=O)NC3C[C@]4(C)O[C@@]3(C)[C@@H]3C(=O)N(c5ccc(C#N)c(Cl)c5)C(=O)[C@@H]34)c(F)c2)C(C)(C)C)C1 (stereo partly drawn) [Compound 19, (3S,5R)-1-((2R)-2-(2-((5-((4-(((3aS,4S,7S,7aR)-2-(3-chloro-4-benzonitrile)4,7-dimethyl-1,3-dioxooctahydro-1H-4,7-epoxyisoindolin-5-yl)carbamoyl)-3-fluorophenyl)amino)pentyl)oxy)acetylamino)-3,3-dimethylbutyryl)-5-(((R)-1-(4-(4-methylthiazol-5-yl)phenyl)ethyl)carbamoyl)pyrrolidin-3-yl acetate]	–	–	pIC50 ([1]; LNCaP/AR, 144 h): > 7.00; inhibition at 0.1 µM ([2]; VCaP): < 25%
Cc1ncsc1-c1ccc([C@@H](C)NC(=O)[C@H]2C[C@@H](O)CN2C(=O)[C@H](NC(=O)COCCCCCNc2ccc(C(=O)NC3C[C@]4(C)O[C@@]3(C)[C@@H]3C(=O)N(c5ccc(C#N)c(Cl)c5)C(=O)[C@@H]34)c(F)c2)C(C)(C)C)cc1 (stereo partly drawn) [Compound 20, (2R,4S)-1-((2R)-2-(2-((5-((4-(((3aS,4S,7S,7aR)-2-(3-chloro-4-benzonitrile)-4,7-dimethyl-1,3-dioxooctahydro-1H-4,7-epoxyisoindolin-5-yl)carbamoyl)-3-fluorophenyl)amino)pentyl)oxy)acetylamino)-3,3-dimethylbutyryl)-4-hydroxy-N-((R)-1-(4-(4-methylthiazol-5-yl)phenyl)ethyl)pyrrolidine-2-carboxamide]	–	–	pIC50 ([1]; LNCaP/AR, 144 h): > 7.00; inhibition at 0.1 µM ([2]; VCaP): 25 to 49%
[2H]C([2H])([2H])N(C(=O)c1ccc(C#CCCCOCC(=O)N[C@H](C(=O)N2C[C@H](O)C[C@H]2C(=O)N[C@@H](C)c2ccc(-c3scnc3C)cc2)C(C)(C)C)cc1)[C@H]1C(C)(C)[C@H](Oc2ccc(C#N)c(Cl)c2)C1(C)C [Compound 22]	> 7.00	25 to 49	–
[2H]C([2H])([2H])N(C(=O)c1ccc(C#CCCCCOCC(=O)N[C@H](C(=O)N2C[C@H](O)C[C@H]2C(=O)N[C@@H](C)c2ccc(-c3scnc3C)cc2)C(C)(C)C)cc1)[C@H]1C(C)(C)[C@H](Oc2ccc(C#N)c(Cl)c2)C1(C)C [Compound 23]	> 7.00	25 to 49	–
[2H]C([2H])([2H])N(C(=O)c1ccc(C#CCCCCCOCC(=O)N[C@H](C(=O)N2C[C@H](O)C[C@H]2C(=O)N[C@@H](C)c2ccc(-c3scnc3C)cc2)C(C)(C)C)cc1)[C@H]1C(C)(C)[C@H](Oc2ccc(C#N)c(Cl)c2)C1(C)C [Compound 24]	> 7.00	50 to 79	–
[2H]C([2H])([2H])N(C(=O)c1ccc(C#CCCOCC(=O)N[C@H](C(=O)N2C[C@H](O)C[C@H]2C(=O)N[C@@H](C)c2ccc(-c3scnc3C)cc2)C(C)(C)C)cc1)[C@H]1C(C)(C)[C@H](Oc2ccc(C#N)c(Cl)c2)C1(C)C [Compound 26]	> 7.00	< 25	–
Cc1ncsc1-c1ccc([C@H](C)NC(=O)[C@@H]2C[C@@H](O)CN2C(=O)[C@@H](NC(=O)COCCC#Cc2ccc3c(c2)CN([C@H]2C(C)(C)[C@H](Oc4ccc(C#N)c(Cl)c4)C2(C)C)C3=O)C(C)(C)C)cc1 [Compound 27]	> 7.00	50 to 79	–
[2H]C([2H])([2H])N(C(=O)c1ccc(C#CCCCNC(=O)C2(C(=O)N[C@H](C(=O)N3C[C@H](O)C[C@H]3C(=O)N[C@@H](C)c3ccc(-c4scnc4C)cc3)C(C)(C)C)CC2)cc1)[C@H]1C(C)(C)[C@H](Oc2ccc(C#N)c(Cl)c2)C1(C)C [Compound 28]	> 7.00	25 to 49	–
Cc1ncsc1-c1ccc([C@H](C)NC(=O)[C@@H]2C[C@@H](O)CN2C(=O)[C@@H](NC(=O)COCCCN2CCN(c3ccc4c(c3)CN(C3C(C)(C)C(Oc5ccc(C#N)c(Cl)c5)C3(C)C)C4=O)CC2)C(C)(C)C)cc1 (stereo partly drawn) [Compound 31]	> 7.00	50 to 79	–
Cc1ncsc1-c1ccc([C@H](C)NC(=O)[C@@H]2C[C@@H](O)CN2C(=O)[C@@H](NC(=O)COC2CN(CCC#Cc3ccc4c(c3)CN([C@H]3C(C)(C)[C@H](Oc5ccc(C#N)c(Cl)c5)C3(C)C)C4=O)C2)C(C)(C)C)cc1 [Compound 32, (2s,4r)-1-((s)-2-(2-((1-(4-(2-((1r,3r)-3-(3-chloro-4-cyanophenoxy)-2,2,4,4-tetramethylcyclobutyl)-1-oxoheteroin-5-yl)-3-butyne-1-yl)azetidine-3-yl)oxy)acetamido)-3,3-dimethylbutyryl)-4-hydroxy-N-((S)-1-(4-(4-methylthiazol-5-yl)phenyl)ethyl)pyrrolidine-2-carboxamide]	> 7.00	50 to 79	–
[2H]C([2H])([2H])N(C(=O)c1ccc(C#CCCCCOCC(=O)N[C@H](C(=O)N2C[C@H](O)C[C@H]2C(=O)N[C@@H](C)c2ccc(-c3scnc3C)cc2)C(C)(C)C)nc1)[C@H]1C(C)(C)[C@H](Oc2ccc(C#N)c(Cl)c2)C1(C)C [Compound 33]	6.30 to 7.00	0	–
Cc1ncsc1-c1ccc([C@H](C)NC(=O)[C@H]2C[C@@H](O)CN2C(=O)[C@@H](NC(=O)COCCCCC#Cc2cc3c(cn2)C(=O)N(C2C(C)(C)C(Oc4ccc(C#N)c(Cl)c4)C2(C)C)C3)C(C)(C)C)cc1 (stereo partly drawn) [Compound 38]	–	–	pIC50 ([1]; proliferation of LNCap/AR cells, 6 days, CCK-8, read-out: IC50): > 7.00; % degradation [2]: B (key: A: >80%; B: 79%-50%; C: 49%-25%; D: <25%)
Cc1ncsc1-c1ccc([C@H](C)NC(=O)[C@@H]2C[C@@H](O)CN2C(=O)[C@@H](NC(=O)CCn2cc(C#Cc3ccc4c(c3)CN([C@H]3C(C)(C)[C@H](Oc5ccc(C#N)c(Cl)c5)C3(C)C)C4=O)cn2)C(C)(C)C)cc1 [Compound 42]	> 7.00	50 to 79	–
Cc1ncsc1-c1ccc([C@H](C)NC(=O)[C@@H]2C[C@@H](O)CN2C(=O)[C@@H](NC(=O)CN2CC(CC#Cc3ccc4c(c3)CN([C@H]3C(C)(C)[C@H](Oc5ccc(C#N)c(Cl)c5)C3(C)C)C4=O)C2)C(C)(C)C)cc1 [Compound 43]	> 7.00	50 to 79	–
CC(=O)O[C@@H]1CC(C(=O)NC2(c3ccc(-c4scnc4C)cc3)CC2)N(C(=O)[C@@H](NC(=O)COCCCCCNc2ccc(C(=O)N[C@H]3C(C)(C)[C@H](Oc4ccc(C#N)c(Cl)c4)C3(C)C)cc2)C(C)(C)C)C1 (stereo partly drawn) [Compound 46, (3R,5S)-1-((S)-2-(2-((5-((4-(((1r,3r)-3-(3-chloro-4-cyanophenoxy)-2,2,4,4-tetramethylcyclobutyl)carbamoyl)phenyl)amino)pentyl)oxy)acetamido)-3,3-dimethylbutanol)-5-((1-(4-methylthiazol-5-yl)phenyl)cyclopropyl)carbamoyl) pyrrolidin-3-yl acetate]	–	–	pIC50 ([1]; LNCaP/AR, 144 h): > 7.00; inhibition at 0.1 µM ([2]; VCaP): 25 to 49%
Cc1ncsc1-c1ccc(C2(NC(=O)C3C[C@@H](O)CN3C(=O)[C@@H](NC(=O)COCCCCCNc3ccc(C(=O)N[C@H]4C(C)(C)[C@H](Oc5ccc(C#N)c(Cl)c5)C4(C)C)cc3)C(C)(C)C)CC2)cc1 (stereo partly drawn) [Compound 47]	> 7.00	50 to 79	–
Cc1ncsc1-c1ccc([C@H](CO)NC(=O)[C@@H]2C[C@@H](O)CN2C(=O)[C@@H](NC(=O)COCCCCC#Cc2ccc3c(c2)CN([C@H]2C(C)(C)[C@H](Oc4ccc(C#N)c(Cl)c4)C2(C)C)C3=O)C(C)(C)C)cc1 [Compound 48, (2S,4R)-1-((S)-2-(2-((6-(2-(((1r,3r)-3-(3-chloro-4-cyanophenoxy))-2,2,4,4-tetramethylcyclobutyl)-1-oxoisoindolin-5-yl)hex-5-yn-1-yl)oxy)acetamido)-3,3-dimethylbutyryl)-4-hydroxy-N-((R)-2-hydroxy-1-(4-(4-methylthiazol-5-yl)phenyl)ethyl)pyrrolidine-2-carboxamide]	> 7.00	> 80	–
